In patent US7456171B2, “1,4-Diazabicyclo[3.2.2]nonanecarboxamide derivatives, preparation and therapeutic use thereof” (Sanofi-Aventis, priority 2002, dated 2008):

Compound: O=C(c1c[nH]c2nc(Cl)ccc12)N1CCN2CCC1CC2
- melting point: 228 to 229 °C
